Tests used:
[1] = tested on: KM mice (tail suspension model of behavioral despair); test: Tail suspension test after single intragastric (oral) administration; format: in vivo; details: tail suspension test 1 h after administration, last 4 min, mean ± SEM
Method: (§1) The experimental animals were male SPF grade KM mice purchased from Kunming Medical University, weighed 21-24 g, certificate no. SCXK(Dian)K2015-0002. The experimental animals were bred in individually ventilated cages (IVCs) in animal room in Dianqing Biotechnology, Ltd., Yunnan (facility no. 13-11-078 and 13-11-079; manufacture date: Nov. 24, 2013). The room temperature was controlled at 22-24° C. with humidity at 40-70% and 12-hour light/dark cycle (7:00 am/19:00 pm). The cages and padding were changed twice a week. The raising method was group raising and there were 10 mice accommodated in each cage. The feed was sterilized feed from Jiangsu Xietong Medical Bioengineering, Ltd., certificate no.: (2014)01008. Feed was supplied once daily with free access . Tap water was supplied in boxes with free access.
A. Behavioral testing was performed in different treatment groups (1.0 mg/kg, 5.0 mg/kg, 10.0 mg/kg, 15.0 mg/kg, 30.0 mg/kg) 1 h after intragastric (i.g.) administration of the compound of formula 1;
B. In the negative control group receiving normal saline (NS), the behavioral testing was conducted at the same time;
C. In the positive control group receiving imipramine (IMI; 15 mg/kg), the behavioral testing was conducted at the same time;
Route of administration: The test compound of formula 1, normal saline or imipramine was administered by intragatric administration according to the experimental design.
Time of administration: The animals were accommodated to the experimental environment for 1 hour, administrated by intragatric administration, and subjected to tail suspension test 1 hour after the administration.
Test criterion: The mice were subjected to a 6-minute tail suspension test, and the cumulative time of immobility in the first 2 minutes and the last 4 minutes was recorded. The criterion for immobility is that the mouse stops struggling and remains steady.
(§2) A depression model of behavioral despair, ie. tail suspension model, was used. Animals were accommodated to the company's breeding environment for 1 day. During the adaptation, animals with non-smooth and unclean hair, high alertness or aggressivity were excluded.
(§3) Animals were accommodated to the experimental environment for 1 hour, weighed, and randomized according to the body weight into a normal saline control group, an imipramine control group and treatment groups with different doses.
(§4) In the tail suspension test, animals in all groups were administered with corresponding drugs by a single intragastric administration. 1 h after the administration, tails of mice were fixed with medical tape at about 1-2 cm from the end, such that the mice were hanged in the tail suspension box with the heads about 10 cm above the bottom of the box. The observation started immediately after hanging. In the 6-minute observation, the cumulative time of immobility in the first 2 minutes and the last 4 minutes was recorded. A video was recorded with obviously contrasted background with the hair color of the mice, for example, black background was used for white mice.
(§5) The cumulative time of immobility within the last 4 minutes was compared between the test compound groups and the normal saline group using SPSS 11.0 software. One-way analysis of variance (ANOVA) was used for comparison among multiple groups, and independent sample T test was performed for comparisons in pairs. P <0.05 indicates a statistically significant difference. All statistical diagrams were plotted in mean ±SEM using Origin 8.0 software.

[2] = Solubility in water (description of test compound); format: physicochemical
[3] = tested on: KM mice (tail suspension model of behavioral despair); test: Tail suspension test after single intraperitoneal injection; format: in vivo; details: tail suspension test 0.5 h after administration, last 4 min, mean ± SEM
Method: as §1, with “access.” for “access .”
A. Behavioral testing was performed in different treatment groups (1.0 mg/kg, 5.0 mg/kg, 10.0 mg/kg, 20.0 mg/kg) 0.5 h after intraperitoneal (i.p.) injection of the compound of formula 1;
B. In the control group receiving normal saline (NS), the behavioral testing was conducted at the same time;
C. In the control group receiving imipramine (IMI; 15 mg/kg), the behavioral testing was conducted at the same time;
Route of administration: The test compound of formula 1, normal saline or imipramine was administered by intraperitoneal injection according to the experimental design.
Time of administration: The animals were accommodated to the experimental environment for 1 hour, administrated by intraperitoneal injection and subjected to tail suspension test 0.5 hour after the administration.
Test criterion: The mice were subjected to a 6-minute tail suspension test, and the cumulative time of immobility in the first 2 minutes and the last 4 minutes was recorded. The criterion for immobility was that the mouse stops struggling and remains steady.
as §2, §3
as §4, with “groups for tail suspension test” for “groups”, “intraperitoneal injection. 0.5” for “intragastric administration. 1”
as §5

NMDA receptor = test: Whole-cell NMDAR current (NMDAR-EPSC) recording in hippocampal CA1 pyramidal cells of brain slices; format: cell-based, mice; details: hippocampal CA1 pyramidal cells at +40 mV, last 10 min of 20 min
Method: Male C57BL/6 mice, aged 3-9 weeks, were purchased from Beijing Vital River Laboratory Animal Technology Co., Ltd. (Beijing, China). The animals were bred at 23 ±1° C. The room temperature was controlled at 22-24° C. with humidity at 40-70% and 12-hour light/dark cycle (7:00 am/19:00 pm).
A. The baseline whole-cell NMDAR current was recorded in 10 minutes before the compound of formula 1 (0.76, 3.8 mM/L) was dissolved in artificial cerebrospinal fluid (vehicle) and added with the brain slice circulation fluid.
B. An identical volume of artificial cerebrospinal fluid (vehicle) was added with the brain slice circulation fluid.
Treatment: The brain slice circulation fluid was directly added.
Time of treatment: 10 minutes after baseline recording.
Test item: depolarization voltage-induced whole-cell NMDAR receptor currents.
Hippocampal brain slices: The animals were anesthetized with isoflurane and the brains were collected quickly. […]
Whole-cell NMDAR current recording: NMDAR whole cell EPSC recording was performed in hippocampal CA1 pyramidal cells. […] The electrical signal in whole cells was recorded using a Clampfit 10.3 software (Axon Instruments) equipped with an Axopatch-700B amplifier (Axon Instruments, Foster City, Calif.) and a Digiclata 1440A digital-to-analog converter, with filtering set at 2.8 kHz and sampling at 10 kHz. […]

Row | Structure (SMILES) | Time of immobility (% of NS) ([1]; 1 mg/kg i.g.) | Time of immobility (% of NS) ([1]; 5 mg/kg i.g.) | Time of immobility (% of NS) ([1]; 10 mg/kg i.g.) | Time of immobility (% of NS) ([1]; 15 mg/kg i.g.) | Time of immobility (% of NS) ([1]; 30 mg/kg i.g.) | Solubility in water [2] | Time of immobility (% of NS) ([3]; 1 mg/kg i.p.) | Time of immobility (% of NS) ([3]; 5 mg/kg i.p.) | Time of immobility (% of NS) ([3]; 10 mg/kg i.p.) | Time of immobility (% of NS) ([3]; 20 mg/kg i.p.) | NMDAR current (% of Baseline) (NMDA receptor; 0.76 mM/L in circulating artificial cerebrospinal fluid) | NMDAR current (% of Baseline) (NMDA receptor; 3.8 mM/L in circulating artificial cerebrospinal fluid) | Time of immobility (% of NS) ([3]; 15 mg/kg i.p.)
1 | Cc1ccc(O[C@@H]2OC(CO)[C@@H](O)[C@H](O)C2O)cc1O[C@@H]1OC(CO)[C@@H](O)[C@H](O)C1O (some centres unmarked) [Compounds of formula 1] | 87.14 ± 11.27 % of NS | 72.67 ± 7.89 % of NS | 66.86 ± 8.80 % of NS | 68.33 ± 7.17 % of NS | 77.38 ± 6.00 % of NS | easily soluble in water | 104.02 ± 16.80 % of NS | 72.12 ± 8.57 % of NS | 60.44 ± 7.53 % of NS | 104.66 ± 14.75 % of NS | 108.80 ± 5.86 % of Baseline | 155.53 ± 20.85 % of Baseline | –
2 | CN(C)CCCN1c2ccccc2CCc2ccccc21 [IMI, imipramine, reference compound] | – | – | – | 58.64 ± 5.42 % of NS | – | – | – | – | – | – | – | – | 58.12 ± 5.66 % of NS
